Earlier results in patent US20240239814A1, “Complexes Of CU(I) As Antitumor Agents” (priority 2021, published 2024).

Experiments:
[1] = test system: panel of human cancer cells; conditions: 2D monolayer, cited from earlier work
[2] = test system: human cancer cell lines endowed with acquired or natural resistance to CDDP or to OXP; conditions: fold lower IC50 in resistant cell lines; cited from earlier work
[3] = test system: HCT-15 colon cancer spheroids; conditions: HCT-15 spheroids; cited from earlier work
[4] = test system: LoVo colon cancer spheroids; conditions: cited from earlier work
[5] = compared with CDDP; cited from earlier work
[6] = cited from earlier work
Lewis Lung Carcinoma = conditions: different schedules, compared with CDDP; cited from earlier work
[7] = animals of the Lewis Lung Carcinoma model; cited from earlier work
[8] = test system: human colorectal cancer xenografts; conditions: oxaliplatin-sensitive and resistant models; cited from earlier work
proteasome = conditions: cited from earlier work
[9] = test system: human non transformed cells; conditions: average IC50 normal cells / average IC50 malignant cells; cited from earlier work

F[P-](F)(F)(F)(F)F.OCP(CO)CO.OCP(CO)CO.OCP(CO)CO.OCP(CO)CO.[Cu+] [[Cu(thp)4][PF6]]
cytotoxicity relative to CDDP ([1]; fold more cytotoxic than CDDP): up to 50 fold
cytotoxicity relative to OXP ([1]; fold more cytotoxic than OXP): ≤ 30 fold
IC50 relative to the reference metallodrugs [2]: up to 35 fold
IC50 relative to OXP [3]: very similar to those of OXP
IC50 relative to OXP [4]: very similar to those of OXP
median lethal doses (LD50) and maximum tolerated doses (MTD) [5]: significantly higher that those recorded with CDDP
solubility and stability in water solution [6]: highly soluble and stable in water solution
inhibition of proliferation of tumor cell population in vivo (Lewis Lung Carcinoma): superior to that induced by the gold-standard drug CDDP
clinical signs of toxicity [7]: no clinical signs of toxicity and no anorexia
efficacy of chemotherapy in xenografts [8]: extremely effective in both oxaliplatin-sensitive and resistant models
effect on proteolytic activities of proteasome (proteasome): inhibit the proteolytic activities of proteasome
selectively index relative to CDDP [9]: about 30 times
selectively index relative to OXP [9]: 3 times
